The values that follow come from patent publication US10638756B2, “Molecules having pesticidal utility, and intermediates, compositions, and processes, related thereto” (Dow AgroSciences LLC, priority 2017, dated 2020).

Assay [1] relates to Beet Armyworm (Spodoptera exigua). As to the kind of experiment: Bioassay on Beet Armyworm (BAW), 128-well diet tray assay. It counts as in vivo. To be noted: for mortality at 50 µg/cm2: Spodoptera exigua, 168 h, 50 μg/cm^2 on artificial diet, second instar larvae, five to seven days, read-out: BAW % Control (or Mortality) rating. As for the experimental part:
(§1) Certain molecules disclosed in this document were tested against BAW and CL using procedures described in the following examples. In the reporting of the results, the “BAW & CL Rating Table” was used (See Table Section).
Bioassays on BAW were conducted using a 128-well diet tray assay. […] Trays were covered with a clear self-adhesive cover, vented to allow gas exchange, and held at 25° C., 14:10 light-dark for five to seven days. Percent mortality was recorded for the larvae in each well; activity in the eight wells was then averaged. The results are indicated in the table entitled “Table ABC: Biological Results” (See Table Section).

For assay [2], the system named is Cabbage Looper (Trichoplusia ni). Kind of assay: Bioassay on Cabbage Looper (CL), 128-well diet tray assay. It counts as in vivo. To be noted: 168 h, 50 μg/cm^2 on artificial diet, second instar larvae, five to seven days, read-out: CL % Control (or Mortality) rating. Here is the method:
as §1
Bioassays on CL were conducted using a 128-well diet tray assay. One to five second instar CL larvae were placed in each well (3 mL) of the diet tray that had been previously filled with 1 mL of artificial diet to which 50 μg/cm^2 of the test molecule (dissolved in 50 μL of 90:10 acetone-water mixture) had been applied (to each of eight wells) and then allowed to dry. Trays were covered with a clear self-adhesive cover, vented to allow gas exchange, and held at 25° C., 14:10 light-dark for five to seven days. Percent mortality was recorded for the larvae in each well; activity in the eight wells was then averaged. The results are indicated in the table entitled “Table ABC: Biological Results” (See Table Section).

On to `O=C(NNc1cccc(F)n1)c1ccc(/C(F)=C/C(c2cc(Cl)c(Cl)c(Cl)c2)C(F)(F)F)cc1C(F)(F)F` (stereo not drawn) [F34, (Z)—N′-(6-Fluoropyridin-2-yl)-4-(1,4,4,4-tetrafluoro-3-(3,4,5-trichlorophenyl)but-1-en-1-yl)-2-(trifluoromethyl)benzohydrazide], for which the mortality at 50 µg/cm2 in assay [1] and in assay [2] was 50 to 100% in each case.

For `Cc1cc(/C(F)=C/C(c2cc(Cl)c(Cl)c(Cl)c2)C(F)(F)F)ccc1C(=O)NNc1ncccn1` (stereo not drawn) [F37, (Z)-2-Methyl-N′-(pyrimidin-2-yl)-4-(1,4,4,4-tetrafluoro-3-(3,4,5-trichlorophenyl)but-1-en-1-yl)benzohydrazide], the “BAW (Table CD-1)” value came to 0 in assay [1] (0.05 μg/cm^2), 100 in assay [1] (5.0 μg/cm^2) and 100 in assay [1] (50 μg/cm^2). The mortality at 50 µg/cm2 in assay [1] and in assay [2] was 50 to 100% throughout.

Take `O=C(N/N=C/c1ccccc1)c1ccc(/C(F)=C/C(c2cc(Cl)c(Cl)c(Cl)c2)C(F)(F)F)cc1C(F)(F)F` (stereo not drawn) [F38, N′-((E)-benzylidene)-4-((Z)-1,4,4,4-tetrafluoro-3-(3,4,5-trichlorophenyl)but-1-en-1-yl)-2-(trifluoromethyl)benzohydrazide]: the mortality at 50 µg/cm2 in assay [1] and in assay [2] was 50 to 100% each time.

`CC(C)(C)NNC(=O)c1ccc(/C(F)=C/C(c2cc(Cl)c(Cl)c(Cl)c2)C(F)(F)F)cc1C(F)(F)F` (stereo not drawn) [F40, (Z)—N′-(tert-Butyl)-4-(1,4,4,4-tetrafluoro-3-(3,4,5-trichlorophenyl)but-1-en-1-yl)-2-(trifluoromethyl)benzohydrazide]: the mortality at 50 µg/cm2 in assay [1] and in assay [2] was 50 to 100% in each case.

Consider `CCc1cnc(N(C)NC(=O)c2ccc(/C(F)=C/C(c3cc(Cl)c(Cl)c(Cl)c3)C(F)(F)F)cc2C(F)(F)F)nc1` (stereo not drawn) [F41, (Z)—N′-(5-Ethylpyrimidin-2-yl)-N′-methyl-4-(1,4,4,4-tetrafluoro-3-(3,4,5-trichlorophenyl)but-1-en-1-yl)-2-(trifluoromethyl)benzohydrazide], for which the mortality at 50 µg/cm2 in assay [1] and in assay [2] was 50 to 100% throughout.

For `O=C(NNc1ncccn1)c1ccc(/C(F)=C/C(c2ccc(Cl)c(OC(F)(F)F)c2)C(F)(F)F)cc1C(F)(F)F` (stereo not drawn) [F42, (Z)-4-(3-(4-Chloro-3-(trifluoromethoxy)phenyl)-1,4,4,4-tetrafluorobut-1-en-1-yl)-N′-(pyrimidin-2-yl)-2-(trifluoromethyl)benzohydrazide], the mortality at 50 µg/cm2 in assay [1] and in assay [2] was 50 to 100% each time.

For `CN(NC(=O)c1ccc(/C(F)=C/C(c2cc(Cl)c(Cl)c(Cl)c2)C(F)(F)F)cc1Cl)c1ncccn1` (stereo not drawn) [F43, (Z)-2-Chloro-N′-methyl-N′-(pyrimidin-2-yl)-4-(1,4,4,4-tetrafluoro-3-(3,4,5-trichlorophenyl)but-1-en-1-yl)benzohydrazide], the mortality at 50 µg/cm2 in assay [1] and in assay [2] was 50 to 100% each time.

Regarding `O=C(NNc1nccc(C(F)(F)F)n1)c1ccc(/C(F)=C/C(c2cc(Cl)c(Cl)c(Cl)c2)C(F)(F)F)cc1C(F)(F)F` (stereo not drawn) [F44, (Z)-4-(1,4,4,4-Tetrafluoro-3-(3,4,5-trichlorophenyl)but-1-en-1-yl)-2-(trifluoromethyl)-N′-(4-(trifluoromethyl)pyrimidin-2-yl)benzohydrazide], the mortality at 50 µg/cm2 in assay [1] and in assay [2] was 50 to 100% throughout.

`O=C(NNc1ccccc1)c1ccc(/C(F)=C/C(c2cc(Br)c(F)c(Br)c2)C(F)(F)F)cc1C(F)(F)F` (stereo not drawn) [F45, (Z)-4-(3-(3,5-dibromo-4-fluorophenyl)-1,4,4,4-tetrafluorobut-1-en-1-yl)-N′-phenyl-2-(trifluoromethyl)benzohydrazide]: the mortality at 50 µg/cm2 in assay [1] and in assay [2] was 50 to 100% in each case.

As for `O=C(Nn1cnnc1)c1ccc(/C(F)=C/C(c2cc(Cl)c(Cl)c(Cl)c2)C(F)(F)F)cc1C(F)(F)F` (stereo not drawn) [F48, (Z)-4-(1,4,4,4-Tetrafluoro-3-(3,4,5-trichlorophenyl)but-1-en-1-yl)-N-(4H-1,2,4-triazol-4-yl)-2-(trifluoromethyl)benzamide], the mortality at 50 µg/cm2 in assay [1] and in assay [2] was 0% each time.

Consider `O=C(NNCC(F)(F)F)c1ccc(/C(F)=C/C(c2cc(Cl)c(Cl)c(Cl)c2)C(F)(F)F)cc1C(F)(F)F` (stereo not drawn) [F49, (Z)-4-(1,4,4,4-tetrafluoro-3-(3,4,5-trichlorophenyl)but-1-en-1-yl)-N′-(2,2,2-trifluoroethyl)-2-(trifluoromethyl)benzohydrazide], for which the mortality at 50 µg/cm2 in assay [1] and in assay [2] was 50 to 100% each time.

Turning to `O=C(NNc1ncccn1)c1ccc(/C(F)=C/C(c2ccc(OC(F)(F)F)c(Cl)c2)C(F)(F)F)cc1C(F)(F)F` (stereo not drawn) [F50, (Z)-4-(3-(3-Chloro-4-(trifluoromethoxy)phenyl)-1,4,4,4-tetrafluorobut-1-en-1-yl)-N′-(pyrimidin-2-yl)-2-(trifluoromethyl)benzohydrazide], the mortality at 50 µg/cm2 in assay [1] and in assay [2] was 50 to 100% throughout.

For the compound `O=C(Nn1cccc1)c1ccc(/C(F)=C/C(c2cc(Cl)c(Cl)c(Cl)c2)C(F)(F)F)cc1C(F)(F)F` (stereo not drawn) [F51, (Z)—N-(1H-Pyrrol-1-yl)-4-(1,4,4,4-tetrafluoro-3-(3,4,5-trichlorophenyl)but-1-en-1-yl)-2-(trifluoromethyl)benzamide], the mortality at 50 µg/cm2 in assay [1] and in assay [2] was 50 to 100% in each case.

With `Cc1cc(/C(F)=C/C(c2cc(Cl)c(Cl)c(Cl)c2)C(F)(F)F)ccc1C(=O)NN(C)c1ncccn1` (stereo not drawn) [F55, (Z)—N′,2-Dimethyl-N′-(pyrimidin-2-yl)-4-(1,4,4,4-tetrafluoro-3-(3,4,5-trichlorophenyl)but-1-en-1-yl)benzohydrazide], the mortality at 50 µg/cm2 in assay [1] and in assay [2] was 50 to 100% each time.

Take `O=C(NNc1ccncc1)c1ccc(/C(F)=C/C(c2cc(Cl)c(Cl)c(Cl)c2)C(F)(F)F)cc1C(F)(F)F` (stereo not drawn) [F57, (Z)—N′-(Pyridin-4-yl)-4-(1,4,4,4-tetrafluoro-3-(3,4,5-trichlorophenyl)but-1-en-1-yl)-2-(trifluoromethyl)benzohydrazide]: the mortality at 50 µg/cm2 in assay [1] and in assay [2] was 50 to 100% throughout.

With `O=C(NNc1ncnc(Cl)n1)c1ccc(/C(F)=C/C(c2cc(Cl)c(Cl)c(Cl)c2)C(F)(F)F)cc1C(F)(F)F` (stereo not drawn) [F58, (Z)—N′-(4-Chloro-1,3,5-triazin-2-yl)-4-(1,4,4,4-tetrafluoro-3-(3,4,5-trichlorophenyl)but-1-en-1-yl)-2-(trifluoromethyl)benzohydrazide], the mortality at 50 µg/cm2 in assay [1] and in assay [2] was 50 to 100% throughout.

Turning to `CN(NC(=O)c1ccc(/C(F)=C/C(c2cc(Cl)c(Cl)c(Cl)c2)C(F)(F)F)cc1C(F)(F)F)c1ccccn1` (stereo not drawn) [F59, (Z)—N′-Methyl-N′-(pyridin-2-yl)-4-(1,4,4,4-tetrafluoro-3-(3,4,5-trichloro-phenyl)but-1-en-1-yl)-2-(trifluoromethyl)benzohydrazide], the mortality at 50 µg/cm2 in assay [1] and in assay [2] was 50 to 100% each time.

Turning to `CN(NC(=O)c1ccc(/C(F)=C/C(c2ccc(Cl)c(OC(F)(F)F)c2)C(F)(F)F)cc1C(F)(F)F)c1ccccn1` (stereo not drawn) [F60, (Z)-4-(3-(4-Chloro-3-(trifluoromethoxy)phenyl)-1,4,4,4-tetrafluorobut-1-en-1-yl)-N′-methyl-N′-(pyridin-2-yl)-2-(trifluoromethyl)benzohydrazide], the mortality at 50 µg/cm2 in assay [1] and in assay [2] was 50 to 100% throughout.
